The target of one test is T1, MMP-1 (Homo sapiens, UniProt P03956).
T1 sequence (P03956 100-469): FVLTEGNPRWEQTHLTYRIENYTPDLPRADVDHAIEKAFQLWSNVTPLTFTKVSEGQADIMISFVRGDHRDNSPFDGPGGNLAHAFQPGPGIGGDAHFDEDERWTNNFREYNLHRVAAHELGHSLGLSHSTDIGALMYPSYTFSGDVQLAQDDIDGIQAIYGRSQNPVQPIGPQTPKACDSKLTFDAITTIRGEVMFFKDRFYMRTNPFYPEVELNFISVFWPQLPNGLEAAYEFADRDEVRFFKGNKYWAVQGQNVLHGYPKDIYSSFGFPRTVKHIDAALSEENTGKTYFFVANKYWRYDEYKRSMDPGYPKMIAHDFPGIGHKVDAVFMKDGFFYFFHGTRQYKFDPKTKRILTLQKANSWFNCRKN
Kind of test: Inhibition of Human Collagenase (MMP-1). The note with it: human recombinant collagenase, fluorogenic substrate 10 μM, room temperature. In kind it is biochemical. As to the method:
Biological Assay Inhibition of Human Collacienase (MMP-1)
Human recombinant collagenase is activated with trypsin using the following ratio: 10 μg trypsin per 100 μg of collagenase. The trypsin and collagenase are incubated at room temperature for 10 minutes then a five fold excess (50 μg/10 μg trypsin) of soybean trypsin inhibitor is added.
10 mM stock solutions of inhibitors are made up in dimethyl sulfoxide and then dilute using the following Scheme:
Twenty-five microliters of each concentration is then added in triplicate to appropriate wells of a 96 well microfluor plate. The final concentration of inhibitor will be a 1:4 dilution after addition of enzyme and substrate. Positive controls (enzyme, no inhibitor) are set up in wells D1-D6 and blanks (no enzyme, no inhibitors) are set in wells D7-D12.
Collagenase is diluted to 400 ng/ml and 25 μl is then added to appropriate wells of the microfluor plate. Final concentration of collagenase in the assay is 100 ng/ml. […]
Fluorescence readings (360 nm excitation, 460 nm emission) were taken at time 0 and then at 20 minute intervals. […]
Fluorescence vs time is then plotted for both the blank and collagenase containing samples (data from triplicate determinations is averaged). […] Data is plotted as inhibitor concentration vs % control (inhibitor fluorescence divided by fluorescence of collagenase alone×100). […]

A further test addresses MMP-13 (Homo sapiens, UniProt P45452). In words: Inhibition of MMP-13. The note with it: human recombinant MMP-13, fluorogenic substrate 10 μM. It counts as biochemical. As to the method: Human recombinant MMP-13 is activated with 2 mM APMA (p-aminophenyl mercuric acetate) for 1.5 hours, at 37° C. and is diluted to […] in assay buffer (50 mM Tris, pH 7.5, 200 mM sodium chloride, 5 mM calcium chloride, 20 μM zinc chloride, 0.02% brij). Twenty-five microliters of diluted enzyme is added per well of a 96 well microfluor plate. The enzyme is then diluted in a 1:4 ratio in the assay by the addition of inhibitor and substrate to give a final concentration in the assay of […].
10 mM stock solutions of inhibitors are made up in dimethyl sulfoxide and then diluted in assay buffer as per the inhibitor dilution scheme for inhibition of human collagenase (MMP-1): Twenty-five microliters of each concentration is added in triplicate to the microfluor plate. The final concentrations in the assay are 30 μM, 3 μM, 0.3 μM, and 0.03 μM.
Substrate (Dnp-Pro-Cha-Gly-Cys(Me)-His-Ala-Lys(NMA)-NH2) is prepared as for inhibition of human collagenase (MMP-1) and […] is added to each well to give a final assay concentration of 10 μM. Fluorescence readings (360 nm excitation; 450 emission) are taken at time 0 and every 5 minutes for 1 hour.
Positive controls consist of enzyme and substrate with no inhibitor and blanks consist of substrate only.
IC50 's are determined as per inhibition of human collagenase (MMP-1). […]

For `O=C(O)CCN(C1(C(=O)NO)CCC1)S(=O)(=O)c1ccc(Oc2ccc(F)cc2)cc1` [1 (R^1 = H), 3-[[4-(4-Fluorophenoxy)phenylsulfonyl]-1[(N-hydroxycarbamoyl)cyclobutyl]amino]propionic acid], the IC50 (as a rule, the concentration needed to halve the response being measured) amounted to 90 nM on MMP-1 and 0.6 nM on MMP-13.

Regarding `CCOC(=O)CCN(C1(C(=O)NO)CCC1)S(=O)(=O)c1ccc(Oc2ccc(F)cc2)cc1` [1 (R^1 = ethyl), Ethyl 3-[[4-(4-fluorophenoxy)phenylsulfonyl]-1-[(N-hydroxycarbamoyl)cyclobutyl]amino]propionate], the results for the IC50 on MMP-1 and on MMP-13 were 18 nM and 0.6 nM, respectively.

These data come from patent publication US6156798A, “Cyclobutyl-aryloxyarylsulfonylamino hydroxamic acid derivatives” (Pfizer Inc, priority 1999, dated 2000).
